A short description of series [1]: Apparent permeability from apical to basolateral side in MDCK cells by high-throughput assay. The settings on record: dog. The series is classed as ADME, cell-based, Canis lupus familiaris.
Series [2] concerns the target Nuclear factor NF-kappa-B complex (Homo sapiens, UniProt P19838+Q00653+Q04206). Nature of the series: Inhibition of NF-kappaB in PMA-differentiated human THP-1 cells assessed as reduction in TNF-alpha release preincubated with compound for 1 hrs followed by Pam3CSK4 stimulation and measured after 3 hrs by HTRF assay. The series is classed as cell-based. (Time-resolved FRET reads energy transfer from a long-lived donor to a nearby acceptor.)

Series [3] can be described thus: Metabolic stability in human liver microsomes assessed as intrinsic clearance. The settings on record: read-out: CLH. The series is classed as ADME, Microsome. On the technique in general: Liver microsomes are vesicles of endoplasmic reticulum, rich in cytochrome P450 enzymes.
The nature of series [4]: Equilibrium solubility of compound in DMSO at pH 6.8 by shake flask method. The series is classed as physicochemical.
A short description of series [5]: Lipophilicity, logD of compound at pH 7.4. The series is classed as physicochemical. The settings on record: buffer.
Series [6] in a line: Metabolic stability in mouse liver microsomes assessed as intrinsic clearance. In kind it is ADME, Microsome. The settings on record: read-out: CLH.
Series [7] can be described thus: AUC (0 to infinity) in C57BL/6 mouse at 3 mg/kg, po measured after 24 hrs by LC-MS/MS analysis. In kind it is ADME, organism-based. Conditions: in vivo.
The nature of series [8]: Oral bioavailability in C57BL/6 mouse measured after 24 hrs by LC-MS/MS analysis. The series is classed as ADME, organism-based. Conditions: in vivo.
The nature of series [9]: Clearance in C57BL/6 mouse at 1 mg/kg, iv measured after 24 hrs by LC-MS/MS analysis. The series is classed as ADME, organism-based. The settings on record: in vivo.
Series [10] concerns the target Voltage-gated inwardly rectifying potassium channel KCNH2 (Homo sapiens, UniProt Q12809). Nature of the series: Displacement of [3H]-dofetilide from human ERG. The series is classed as toxicity.
A further series deals with Cytochrome P450. Nature of the series: Drug metabolism in human liver microsomes assessed as CYP450-driven thiophene oxidation mediated metabolite formation by LC-MS/MS analysis. The series is classed as ADME, Microsome.
The nature of series [11]: Drug concentration in blood of C57BL/6 mouse model of acute peritonitis at 50 mg/kg, po preadministered with compound for 1 hrs followed by LPS stimulation for 2 hrs and measured 15 mins after ATP addition by HPLC-MS/MS analysis. In kind it is ADME, organism-based. The settings on record: whole blood, read-out: Ct.
Series [12] can be described thus: In vivo inhibition of NLRP3 in LPS/ATP-induced C57BL/6 mouse model of acute peritonitis assessed as reduction in IL-1beta level at 50 mg/kg, po preadministered with compound for 1 hrs followed by LPS stimulation for 2 hrs and measured 15 mins after ATP addition by ELISA relative to control. Conditions: time 3.25 hrs. In kind it is functional. On the technique in general: In an ELISA, binding on a coated surface is turned into a signal by an enzyme label.

Series [13] in a line: Metabolic stability in rat liver microsomes assessed as intrinsic clearance. In kind it is ADME, Microsome. Conditions: read-out: CLH.

In brackets after ≈: the same amount, converted by molar mass.

Chain of Voltage-gated inwardly rectifying potassium channel KCNH2 (Q12809 whole entry): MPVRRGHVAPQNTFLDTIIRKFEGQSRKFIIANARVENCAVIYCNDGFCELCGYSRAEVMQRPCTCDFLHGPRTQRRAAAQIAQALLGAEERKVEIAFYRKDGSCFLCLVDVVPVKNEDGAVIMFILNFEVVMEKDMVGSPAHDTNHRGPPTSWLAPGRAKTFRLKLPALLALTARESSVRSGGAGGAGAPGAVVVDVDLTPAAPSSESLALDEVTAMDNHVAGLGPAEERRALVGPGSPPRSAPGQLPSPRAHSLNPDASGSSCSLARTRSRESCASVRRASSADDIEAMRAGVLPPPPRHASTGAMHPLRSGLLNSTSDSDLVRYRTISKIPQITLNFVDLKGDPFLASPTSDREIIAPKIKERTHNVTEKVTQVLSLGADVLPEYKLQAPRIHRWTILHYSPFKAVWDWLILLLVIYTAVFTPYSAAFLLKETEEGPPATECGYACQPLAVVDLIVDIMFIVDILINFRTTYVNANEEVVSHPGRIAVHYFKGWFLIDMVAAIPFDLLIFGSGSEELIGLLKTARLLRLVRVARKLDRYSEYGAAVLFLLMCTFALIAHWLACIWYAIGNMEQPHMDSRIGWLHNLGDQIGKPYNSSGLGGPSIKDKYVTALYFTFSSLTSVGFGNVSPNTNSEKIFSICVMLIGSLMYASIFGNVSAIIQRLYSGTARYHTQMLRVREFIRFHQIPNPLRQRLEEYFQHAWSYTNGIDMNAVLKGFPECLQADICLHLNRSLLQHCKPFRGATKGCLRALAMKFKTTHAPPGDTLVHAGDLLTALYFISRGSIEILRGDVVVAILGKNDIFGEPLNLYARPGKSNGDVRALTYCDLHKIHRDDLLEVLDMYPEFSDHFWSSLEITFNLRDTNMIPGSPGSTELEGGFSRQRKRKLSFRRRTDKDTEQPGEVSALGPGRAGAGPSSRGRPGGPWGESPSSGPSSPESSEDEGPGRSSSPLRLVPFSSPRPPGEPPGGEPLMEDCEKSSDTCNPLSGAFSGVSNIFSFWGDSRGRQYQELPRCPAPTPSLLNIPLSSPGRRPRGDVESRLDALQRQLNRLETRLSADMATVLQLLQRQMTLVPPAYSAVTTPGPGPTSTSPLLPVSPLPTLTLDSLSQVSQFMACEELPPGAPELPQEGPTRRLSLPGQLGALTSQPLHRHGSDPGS
Chain of Nuclear factor NF-kappa-B complex (P19838 1-433 limits assumed): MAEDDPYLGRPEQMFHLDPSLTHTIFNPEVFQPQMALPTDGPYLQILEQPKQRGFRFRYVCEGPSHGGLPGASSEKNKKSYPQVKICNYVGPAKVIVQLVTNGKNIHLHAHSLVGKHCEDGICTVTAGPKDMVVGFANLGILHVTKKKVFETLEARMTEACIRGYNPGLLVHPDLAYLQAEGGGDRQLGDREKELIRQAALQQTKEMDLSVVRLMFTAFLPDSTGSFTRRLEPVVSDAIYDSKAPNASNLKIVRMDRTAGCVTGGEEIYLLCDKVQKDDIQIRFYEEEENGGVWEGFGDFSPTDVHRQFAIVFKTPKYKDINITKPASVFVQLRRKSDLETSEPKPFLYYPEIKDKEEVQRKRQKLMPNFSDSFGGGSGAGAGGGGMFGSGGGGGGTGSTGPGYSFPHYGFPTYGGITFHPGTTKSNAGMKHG
Chain of Nuclear factor NF-kappa-B complex (Q00653 1-454 limits assumed): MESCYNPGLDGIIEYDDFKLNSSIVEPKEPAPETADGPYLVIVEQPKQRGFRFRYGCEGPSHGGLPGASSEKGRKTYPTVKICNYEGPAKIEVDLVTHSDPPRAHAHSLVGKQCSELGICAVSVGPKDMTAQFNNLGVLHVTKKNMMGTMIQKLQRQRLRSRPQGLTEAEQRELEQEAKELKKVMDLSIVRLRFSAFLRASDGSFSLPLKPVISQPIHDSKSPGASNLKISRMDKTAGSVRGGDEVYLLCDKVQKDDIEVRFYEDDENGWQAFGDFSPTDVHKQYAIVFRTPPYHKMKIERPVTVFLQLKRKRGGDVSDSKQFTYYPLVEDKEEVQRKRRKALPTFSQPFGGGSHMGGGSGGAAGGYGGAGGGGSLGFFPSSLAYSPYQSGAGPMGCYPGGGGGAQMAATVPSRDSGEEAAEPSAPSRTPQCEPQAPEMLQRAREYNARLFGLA
Chain of Nuclear factor NF-kappa-B complex (Q04206 whole entry): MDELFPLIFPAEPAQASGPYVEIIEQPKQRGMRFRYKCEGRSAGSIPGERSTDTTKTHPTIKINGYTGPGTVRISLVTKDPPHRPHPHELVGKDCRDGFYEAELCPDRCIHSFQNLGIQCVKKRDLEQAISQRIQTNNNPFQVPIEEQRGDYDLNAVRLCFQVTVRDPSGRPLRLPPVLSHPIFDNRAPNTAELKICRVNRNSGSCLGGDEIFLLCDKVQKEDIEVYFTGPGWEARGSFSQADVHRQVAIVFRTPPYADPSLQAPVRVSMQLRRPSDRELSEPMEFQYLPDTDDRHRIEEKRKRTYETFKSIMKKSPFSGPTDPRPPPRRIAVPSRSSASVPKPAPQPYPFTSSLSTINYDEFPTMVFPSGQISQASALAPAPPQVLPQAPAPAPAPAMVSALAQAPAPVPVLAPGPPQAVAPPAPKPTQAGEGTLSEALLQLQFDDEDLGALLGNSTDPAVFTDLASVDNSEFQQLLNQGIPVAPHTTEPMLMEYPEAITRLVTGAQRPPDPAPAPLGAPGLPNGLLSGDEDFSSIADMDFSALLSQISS

`CCc1nn(CC(=O)Nc2cccc(C(C)=O)c2)c(=O)c2cc3sccc3n12`: the Papp A→B (usually how fast a substance crosses the layer from the apical side) in series [1] stood at 41 ×10⁻⁶ cm/s. Also, in [2], the IC50 – broadly, the point on the concentration scale where inhibition reaches its midpoint – was greater than 100 µM. In [3], the microsomal CLint amounted to 299 µL/min/mg. Moreover, the solubility (as a rule, how much of the substance goes into solution per volume) in [4] was 4 µM (≈ 1.58 µg/mL).

On to `CCc1nn(CC(=O)N(C)c2ccccc2)c(=O)c2cc3sccc3n12`, for which, in [1], the Papp A→B worked out at 19 ×10⁻⁶ cm/s. Moreover, in series [3], the microsomal CLint is 971 µL/min/mg. Moreover, the concentration in solution in series [4] (solubility) came to 6 µM (≈ 2.2 µg/mL).

As for `CC(C)c1nn(CC(=O)NC2CCOCC2)c(=O)c2cc3sc(Cl)cc3n12`, the logD (usually lipophilicity at a set pH, counting ionised and neutral species) in series [5] turned out to be 3. Also, the microsomal CLint in series [6] is 129 µL/min/mg; in series [3] it was 30 µL/min/mg. The same compound gave a solubility in [4] of 3 µM (≈ 1.23 µg/mL).

`O=C(Cn1nc(C2CC2)n2c(cc3sccc32)c1=O)Nc1cccnc1` registered a log distribution coefficient (logD) in series [5] of 2.7. The figures for the microsomal CLint in series [6] and in series [3] were 464 µL/min/mg and 76 µL/min/mg, respectively. This compound came in with a solubility in series [4] of 26 µM (≈ 9.5 µg/mL).

Take `CC(C)c1nn(CC(=O)Nc2cccnc2)c(=O)c2cc3sc(Cl)cc3n12`: the pH-dependent lipophilicity (logD) in series [5] was determined as 4. In addition, the area under the curve AUC(0-inf) – broadly, total exposure, with the tail of the curve extrapolated – in series [7] was found to be 3.75 µM·h. For the same compound, the values for the microsomal CLint in [6] and in series [3] were 124 µL/min/mg and 44 µL/min/mg, respectively. Also, the solubility in [4] came out at 10 µM (≈ 4.02 µg/mL). Further, the bioavailability (commonly the share of a dose that reaches the circulation, judged against a reference dose that is usually intravenous) in series [8] was found to be 55%. Also, in series [9], the clearance (usually the volume of plasma or blood freed of the substance per unit of time) was 16.5 mL/min/kg.

As to `CC(C)c1nn(CC(=O)Nc2cccnc2)c(=O)c2cc3sc(F)cc3n12`, the log distribution coefficient (logD) in series [5] is 3.4. For the same compound, the microsomal CLint in [6] was determined as 227 µL/min/mg; in series [3] it was 79 µL/min/mg. In addition, in series [4], the concentration in solution (solubility) was 251 µM (≈ 96.7 µg/mL).

Turning to `CC(C)c1nn(CC(=O)N[C@@H]2CCCN(C)C2)c(=O)c2cc3sc(Cl)cc3n12`, in series [1], the Papp A→B turned out to be 15 ×10⁻⁶ cm/s. In series [10], this compound showed an IC50 greater than 30 µM. In addition, in series [5], the logD was 2.4. The compound further registered an AUC(0-inf) in series [7] of 0.163 µM·h. For the same compound, the microsomal CLint in series [6] was determined as 364 µL/min/mg; in series [3], 59 µL/min/mg. Besides, in series [4], the solubility is greater than 1000 µM. Moreover, the bioavailability in series [8] came to 7.8%. In series [9], this compound showed a clearance of 58 mL/min/kg.

As for `CCc1nn(CC(=O)Nc2cccnc2)c(=O)c2cc3sccc3n12`, the Papp A→B in [1] was 27 ×10⁻⁶ cm/s. The logD in [5] was found to be 2.6. For the same compound, the microsomal CLint in [6] came to 412 µL/min/mg; in [3], 63 µL/min/mg. The compound further registered a solubility in series [4] of 21 µM (≈ 7.42 µg/mL).

In series [5], `CC(C)c1nn(CC(=O)Nc2cccnc2)c(=O)c2cc3sccc3n12` came in with a log distribution coefficient (logD) of 3.1. The microsomal CLint was 490 µL/min/mg in series [6] and 144 µL/min/mg in series [3]. This compound showed a solubility in series [4] of 19 µM (≈ 6.98 µg/mL). Further, in the series on Cytochrome P450, the Drug metabolism entry is reported as “Metabolite_Detected”.

For `CCCc1nn(CC(=O)Nc2cccnc2)c(=O)c2cc3sccc3n12`, the logD in series [5] came out at 3. In addition, the microsomal CLint in series [6] is greater than 1000 µL/min/mg; in series [3] it was 101 µL/min/mg. The compound also gave a solubility in [4] of 3 µM (≈ 1.1 µg/mL).

On to `CC(C)c1nn(CC(=O)N[C@@H]2CCCNC2)c(=O)c2cc3sc(Cl)cc3n12`, for which the Papp A→B in [1] is 3 ×10⁻⁶ cm/s. In series [10], this compound returned an IC50 of 26 µM. Besides, in series [5], the logD came out at 1. This compound also registered an AUC(0-inf) in series [7] of 0.691 µM·h. Moreover, the microsomal CLint was found to be 55 µL/min/mg in series [6] and 12 µL/min/mg in series [3]. In addition, the solubility in series [4] is greater than 1000 µM. This compound showed a bioavailability in series [8] of 27.6%. Moreover, the clearance in [9] is 55.7 mL/min/kg.

Take `CCc1nn(CC(=O)Nc2ccccc2)c(=O)c2cc3sccc3n12`: the Papp A→B in series [1] was 25 ×10⁻⁶ cm/s. For the same compound, in series [3], the microsomal CLint was 269 µL/min/mg. For the same compound, in [4], the solubility came to 2 µM (≈ 0.705 µg/mL).

In turn, `CC(C)(O)c1nn(CC(=O)Nc2cccnc2)c(=O)c2cc3sccc3n12` showed a logD in series [5] of 2.8. Further, the microsomal CLint in [6] was 300 µL/min/mg; in series [3], 68 µL/min/mg. The solubility in [4] was 23 µM (≈ 8.82 µg/mL).

Consider `CC(C)c1nn(CC(=O)N[C@@H]2CCCN(C)C2)c(=O)c2cc3scnc3n12`, for which the logD in series [5] worked out at 1.1. In [11], the concentration at 3.25 h was 113 nM. Further, the inhibition in vivo (usually the share of the control response that was lost under treatment) at 50 mg/kg in series [12] is 40%. In addition, the microsomal CLint was 231 µL/min/mg in series [6] and 27 µL/min/mg in [3]. The same compound registered a solubility in [4] greater than 1000 µM.

Take `CCc1nn(CC(=O)Nc2cccc(O)c2)c(=O)c2cc3sccc3n12`: in [1], the Papp A→B amounted to 5.7 ×10⁻⁶ cm/s. In [3], the microsomal CLint amounted to 405 µL/min/mg. In addition, in series [4], the solubility came out at 4 µM (≈ 1.47 µg/mL).

Consider `CCc1nn(CC(=O)NC2CCCNC2)c(=O)c2cc3sccc3n12` (stereo unspecified), for which, in [1], the Papp A→B was determined as 0.7 ×10⁻⁶ cm/s. Further, the pH-dependent lipophilicity (logD) in series [5] is -0.2. Besides, the microsomal CLint in [6] is 50 µL/min/mg; in series [3], less than 10 µL/min/mg; in series [13], 40 µL/min/mg. Further, the solubility in series [4] is greater than 1000 µM.

As for `CCc1nn(CC(=O)Nc2ccncn2)c(=O)c2cc3sccc3n12`, in [1], the Papp A→B was determined as 21 ×10⁻⁶ cm/s. Also, the microsomal CLint in series [3] was 69 µL/min/mg. In addition, the concentration in solution in series [4] (solubility) was 7 µM (≈ 2.48 µg/mL).

In turn, `CC(C)(O)c1nn(CC(=O)N[C@H]2C[C@@](C)(O)C2)c(=O)c2cc3sc(Cl)cc3n12` gave a logD in [5] of 2.8. The concentration at 3.25 h in series [11] is 65 nM. For the same compound, the inhibition in vivo at 50 mg/kg in series [12] is 30%. In addition, the microsomal CLint in series [6] was 33 µL/min/mg; in series [3], less than 10 µL/min/mg. Moreover, in [4], the solubility worked out at 36 µM (≈ 15.3 µg/mL).

Regarding `CCc1nn(CC(=O)NC)c(=O)c2cc3sccc3n12`, the apparent permeability from apical to basolateral (Papp A→B) in series [1] was determined as 26 ×10⁻⁶ cm/s. The microsomal CLint in [3] was 54 µL/min/mg. Besides, in series [4], the concentration in solution (solubility) was 128 µM (≈ 37.2 µg/mL).

In series [5], `O=C(Cn1ncn2c(cc3sccc32)c1=O)Nc1cccnc1` returned a logD of 1.9. The results for the microsomal CLint in series [6] and in series [3] were 48 µL/min/mg and less than 10 µL/min/mg, respectively. The compound further gave a solubility in series [4] of 91 µM (≈ 29.6 µg/mL).
